Columns and labels:
[1] = Physical stability of crystalline embodiments of compound Ex. 1 (HT-XRPD/HR-XRPD after exposure); type: physicochemical; conditions: for physical stability after exposure to AAC: AAC 40° C./70% RH, two days; for physical stability in climate chamber: four days, HR-XRPD
Method: Long term slurry experiments were performed by suspending compound embodiment 1s in twenty neat solvents and stirred at room temperature for two weeks and at 50° C. for one week. Upon completion of the equilibration time, the residual solids were separated from the mother liquors. The solids were dried under ambient conditions and dried under vacuum (5 mBar) before being analyzed by HT-XRPD. Subsequently, the solids were exposed to accelerated aging conditions (40° C./70% relative humidity) for two days and again analyzed by HT-XRPD.
Embodiment 1s converted to hydrated embodiment 10 when it was exposed to 100% RH at 25° C. […] This behavior is attributable to an unequally strong binding of all the hydration/solvation molecules. In this case, embodiment 10 would have a less strongly bound second water molecule that would be lost under ambient conditions. More precisely, the physical stability of embodiment 1s was investigated in climate chambers by exposing a 20 mg sample of such embodiment to 40° C. and 70% relative humidity for four days, and another 20 mg sample of the same embodiment was exposed also for four days to 25° C. and 100% relative humidity. After four days, the various solid samples were analyzed by HR-XRPD, the crystal cell parameters were determined and the diffractograms were indexed. From bottom to top, the first diffractogram in FIG. 6 corresponds to embodiment 1s as starting material, and the second corresponds to the same form after a 4-day exposure to 40° C. and 70% relative humidity, noted as “1s 70 RH” in the same figure. […] Indexing for such form was not possible due to the small amount in which it was present. The third diffractogram corresponds to embodiment 1s after a 4-day exposure to 25° C. and 100% relative humidity, noted as “10” in the same figure. […] Upon dehydration, both embodiments is and 10 re-crystallized to the anhydrous form with a melting point of 148° C.

[2] = In vivo oral (p.o.) dosing, plasma and colon concentrations (Protocols 1 and 2); conditions: 25 mg/kg p.o., female C57BL/6 mice
Method: These protocols are described below under the heading In vivo Studies.
Three non-fasted female C57BL/6 mice were orally administered test compound at a dose of 25 mg/kg p.o. as a solution in 20% hydroxypropyl-beta-cyclodextrin (HPβCD) at a dose volume of 5 mL/kg. Blood samples were collected at 0.5, 2, and 4 h post dose via retro-orbital bleed or venipuncture of the dorsal metatarsal vein. Blood samples were collected into tubes containing anticoagulant (Heparin-Na) and placed on wet ice. The plasma fraction was separated by centrifugation and frozen at −20° C. for up to 4 h and −80° C. after 4 h unless analyzed shortly after sample collection. Colon samples were collected at 4 h post dose. […] Concentrations of the compound in plasma and colon homogenate were determined using a qualified liquid chromatography-triple quadrupole mass spectrometry (LC-MS/MS) method.
Three non-fasted female C57BL/6 mice were orally administered test compound at a dose of 25 mg/kg p.o. as a solution in 20% HPβCD at a dose volume of 5 mL/kg. […] The plasma fraction was separated by centrifugation and frozen at −20° C. for up to 4 h and −80° C. after 4 h unless analyzed shortly after sample collection. […] Concentrations of the compound in plasma and colon homogenate were determined using a qualified liquid chromatography-triple quadrupole mass spectrometry (LC-MS/MS) method.

[3] = In vivo intracolonic (i.c.) dosing, plasma and colon concentrations (Protocol 3); design: species or system C57BL/6 mice; key to Plasma Concentration After i.c. Dosing, Mean: ^: Mean was not calculated as the values for all three mice were below the lower limit of quantitation; conditions: for Plasma Concentration After i.c. Dosing, Mean: 5 mg/kg intracolonic, female C57BL/6 mice; for systemic exposure after i.c. dosing: mice
Source text: Plasma and colon concentration results were obtained by following Protocol 1 using venipuncture of dorsal metatarsal vein bleed for Compounds (B), (C), and Examples 6 and 11. Plasma and colon concentration results were obtained by following Protocol 2 using retro-orbital bleed for Compounds (A), and Examples 1, and 3-5 and Protocol 2 using venipuncture of the dorsal metatarsal vein for Examples 2, 7-10, and 12. Plasma and colon concentration results were obtained by following Protocol 3 for Examples 1, 3 and 4. These protocols are described below under the heading In vivo Studies.
Intracolonic (IC) dose group: Following anesthesia with isoflurane by inhalation, three non-fasted female C57BL/6 mice were administered the compound intracolonically through a small incision in the abdominal wall using a syringe and needle at a dose of 5 mg/kg as a solution in 20% HPβCD at a dose volume of 1 mL/kg. Blood samples were collected at 0.5, 2, and 4 h post dose via retro-orbital bleed. Blood samples were collected into tubes containing anticoagulant (Heparin-Na) and placed on wet ice. The plasma fraction was separated by centrifugation and frozen at −20° C. for up to 4 h and −80° C. after 4 h unless analyzed shortly after sample collection. Colon samples were collected at 4 h post dose. From 2 cm below the cecum, a 4-cm sample of the colon was dissected, cut open on the longitudinal axis, and the solid contents removed by flushing with 2 mL of saline. The colon was further washed by putting it in 5 mL of saline and shaken for 5 seconds. The colon sample was then patted dry, weighed, and homogenized as 1 part tissue (g) to 4 parts HPLC grade water (mL). Concentrations of the compound in plasma and colon homogenate were determined using a qualified liquid chromatography-triple quadrupole mass spectrometry (LC-MS/MS) method. This protocol was used to evaluate IC dosing of the following test compounds: Examples 1, 3, and 4.

[4] = MDCK-MDR1 permeability assay; type: in vitro ADME; conditions: MDCK-MDR1, pH 7.4; @ 5 μM, with P-gp inhibitor elacridar (2 μM); read-out: MDCK-MDR1 P^eapp(A-B)
Method: Permeability measurements were conducted according to the Cyprotex protocol using the MDCK-MDR1 cell line obtained from the NIH (Rockville, Md., USA). […] The cells in this assay form a cohesive sheet of a single cell layer filing the surface area of the culture dish, also known as a confluent monolayer, and on day four the test compound was added to the apical side of the membrane and the transport of the compound across the monolayer was monitored over a time period of 60 min.
Test compounds were dissolved in DMSO at a concentration of 10 mM. The dosing solutions were prepared by diluting test compound with assay buffer (Hanks Balanced Salt Solution), pH 7.4, at a final concentration of 5 μM. For assessment of apical to basolateral (“A-B”) permeability, buffer was removed from the apical compartment and replaced with test compound dosing solution with or without the permeability glycoprotein (“PgP”, “P-gP”, “Pgp” or “P-gp”) inhibitor elacridar (2 μM). For assessment of basolateral to apical (“B-A”) permeability, buffer was removed from the companion plate and replaced with test compound dosing solution. […] The permeability coefficient (Papp) for each compound was calculated from the following equation: Papp=(dQ/dt)/(C0×S), where dQ/dt is the rate of permeation of the drug across the cells, C0 is the donor compartment concentration at time zero, and S is the area of the cell monolayer. […]

## CC(C)(O)CNC(=O)Cc1nc2cnc3[nH]ccc3c2n1[C@H]1CC[C@H](CC#N)CC1 [Embodiment 5]
[1]
  physical stability after exposure to AAC: physically unstable

## CC(C)(O)CNC(=O)Cc1nc2cnc3[nH]ccc3c2n1[C@H]1CC[C@H](CC#N)CC1 [embodiment 2]
[1]
  physical stability after exposure to AAC: converted to embodiment 3e

## N#CC[C@H]1CC[C@H](n2c(CC(=O)Nc3cc[nH]n3)nc3cnc4[nH]ccc4c32)CC1 [Ex. 11, 2-(1-((1r,4r)-4-(Cyanomethyl)cyclohexyl)-1,6-dihydroimidazo[4,5-d]pyrrolo[2,3-b]pyridin-2-yl)-N-(1H-pyrazol-3-yl)acetamide]
[2]; Time = 2 h
  Plasma Concentration After p.o. Dosing, Mean: ^
[2]; Time = 4 h
  Plasma Concentration After p.o. Dosing, Mean: ^

## CC(C)(O)CNC(=O)Cc1nc2cnc3[nH]ccc3c2n1[C@H]1CC[C@H](CC#N)CC1 [embodiment 1s]
[1]; 25° C. and 100% relative humidity
  physical stability in climate chamber: conversion of embodiment 1s into embodiment 10
[1]; 40° C. and 70% relative humidity
  physical stability in climate chamber: initial embodiment 1s had been recovered

## CC(C)(O)CNC(=O)Cc1nc2cnc3[nH]ccc3c2n1[C@H]1CC[C@H](CC#N)CC1 [Embodiment 7]
[1]
  physical stability after exposure to AAC: physically stable

## N#CC[C@H]1CC[C@H](n2c(CC(=O)NCC3CC3)nc3cnc4[nH]ccc4c32)CC1 [Ex. 3, 2-(1-((1r,4r)-4-(Cyanomethyl)cyclohexyl)-1,6-dihydroimidazo[4,5-d]pyrrolo[2,3-b]pyridin-2-yl)-N-(cyclopropylmethyl)acetamide]
[3]; Time = 2 h
  Plasma Concentration After i.c. Dosing, Mean: ^
[3]; Time = 4 h
  Plasma Concentration After i.c. Dosing, Mean: ^
[3]
  systemic exposure after i.c. dosing: low systemic exposures

## CC(C)(O)CNC(=O)Cc1nc2cnc3[nH]ccc3c2n1[C@H]1CC[C@H](CC#N)CC1 [embodiment 10]
[1]
  physical stability under ambient conditions: physically not stable

## CC(C)(O)CNC(=O)Cc1nc2cnc3[nH]ccc3c2n1[C@H]1CC[C@H](CC#N)CC1 [Ex. 1, 2-(1-((1r,4r)-4-(Cyanomethyl)cyclohexyl)-1,6-dihydroimidazo[4,5-d]pyrrolo[2,3-b]pyridin-2-yl)-N-(2-hydroxy-2-methylpropyl)acetamide]
[3]; Time = 2 h
  Plasma Concentration After i.c. Dosing, Mean: ^
[3]; Time = 4 h
  Plasma Concentration After i.c. Dosing, Mean: ^
[3]
  systemic exposure after i.c. dosing: low systemic exposures

## C[C@@H](O)c1nc2cnc3[nH]ccc3c2n1[C@H]1CC[C@H](CC#N)CC1 [C]
[4]
  Papp A→B: 2.5 ×10⁻⁶ cm/s

## CC(C)(O)CNC(=O)Cc1nc2cnc3[nH]ccc3c2n1[C@H]1CC[C@H](CC#N)CC1 [Embodiment 4]
[1]
  physical stability under ambient conditions: did not appear to be physically stable

## CC(C)(O)CNC(=O)Cc1nc2cnc3[nH]ccc3c2n1[C@H]1CC[C@H](CC#N)CC1 [Embodiment 6]
[1]
  physical stability after exposure to AAC: stable solid form

## N#CCCNC(=O)Cc1nc2cnc3[nH]ccc3c2n1[C@H]1CC[C@H](CC#N)CC1 [Ex. 4, N-(2-Cyanoethyl)-2-(1-((1r,4r)-4-(cyanomethyl)cyclohexyl)-1,6-dihydroimidazo[4,5-d]pyrrolo[2,3-b]pyridin-2-yl)acetamide]
[3]; Time = 4 h
  Plasma Concentration After i.c. Dosing, Mean: ^
[3]
  systemic exposure after i.c. dosing: low systemic exposures
